The numbers were not newly measured in patent US20090092650A1, “Sustained Delivery Formulations of Octreotide Compounds” (priority 2004, published 2009), which cites them from elsewhere.

The conditions of this data set: Marbach et al. 1992.

As for `C[C@@H](O)[C@@H]1NC(=O)[C@H](CCCCN)NC(=O)[C@@H](Cc2c[nH]c3ccccc23)NC(=O)[C@H](Cc2ccccc2)NC(=O)[C@@H](NC(=O)[C@H](N)Cc2ccccc2)CSSC[C@@H](C(=O)N[C@H](CO)[C@@H](C)O)NC1=O` [octreotide], the Therapeutic plasma level is 0.3 ng/mL.
